Holding throughout (test): NCI anticancer screen, dose series, 48 h
Assay [1] has as its system HT29 colon.
For assay [2], the system named is COLO 205 colon.
Assay [3] has as its system DLD-1 colon.
Assay [4] has as its system UO-31 renal.
In assay [5] the test system is HOP-62 NSCLC.
Assay [6] concerns HCT-15 colon.
In assay [7] the test system is 786-0 renal.
The subject of assay [8] is LXFL 529 NSCLC.
The subject of assay [9] is SNB-78 CNS.
Assay [10] relates to SF-539 CNS.
Assay [11] relates to MCF7 breast.
The test system of assay [12] is BT-549 breast.

SMILES strings stand for the structures. Several values for one entry are separate records, joined by “and”; a condition that tells them apart may be missing. Equal values may be shown once.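 All cell lines were grown in 96-well plates and treated with compound for 48 hours. TGI marks complete inhibition of growth.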

Regarding `CCC1=CC2CN3Cn4c(c(COCc5c6n(c7ccccc57)CN5CC7C=C(CC)C5C6(C(=O)OC)C7)c5ccccc54)C(C(=O)OC)(C2)C13`, the TGI in assay [1], in assay [2], in assay [3], in assay [4], in assay [5] and in [6] was more than 100 µM in each case. Also, the TGI in assay [7] and in assay [8] was more than 100 µM throughout.
For `CCN1CCCC(NCc2c3ccccc3c(CNC3CCCN(CC)C3)c3ccccc23)C1` (stereo not drawn), the TGI in assay [1] was more than 37.5 µM; in assay [2], 12.7 µM; in [9], more than 73.1 µM; in [3], 69.5 µM; in assay [4] it was 53.4 µM; in [5], more than 63.4 µM. Besides, the TGI in assay [6] is 43.9 µM; in assay [10], 35.7 µM; in assay [11] it was 15.2 µM.
For `CSC(=Nc1ccccc1)N(c1ccccc1)c1nc(=[N+](C)C)ss1`, the TGI in assay [1] was found to be 0.383 µM; in [2], 3.88 µM; in [9] it was 21.4 µM; in [4], 28.3 µM; in assay [5], 27.2 µM; in [6], 13.7 µM. Moreover, the TGI in [10] was found to be 14.8 µM; in assay [7], 19.3 µM.
Consider `COc1c(O)c2c3c(c(C)cc(O)c3c1O)C(=O)C(O)(C(C)(C)C(C)=O)C2=O` (stereo not drawn), for which the TGI in [1], in [2], in [9], in assay [3], in [4] and in assay [5] was more than 100 µM in each case. The TGI in assay [6], in assay [10], in assay [7] and in assay [8] was more than 100 µM throughout.
`C=Cc1ccc(C)[n+](C[Si](C)(C)O[Si](C)(C)C[n+]2cc(C=C)ccc2C)c1`: the TGI in assay [1], in assay [2], in assay [9], in assay [3], in [4] and in assay [5] was more than 100 µM in each case. For the same molecule, the TGI in assay [10], in [7] and in assay [8] was more than 100 µM each time.
For the molecule `COc1ccc(CC2c3c(cc(OC)c(OC)c3OC)CCN2C)cc1OC` (stereo not drawn), the TGI in assay [1], in [9], in [3], in assay [4], in assay [5] and in assay [6] was more than 100 µM in each case. The TGI in assay [10], in assay [7] and in assay [8] was more than 100 µM throughout.
Regarding `COc1cc2c(cc1OC)[C@H]1CN3CCC[C@H]3C=C1c1ccc(OC)c(O)c1-2`, the TGI in assay [1] is 0.0218 µM and 0.0484 µM; in [2], 0.00119 µM; in assay [9], 0.00049 µM; in [3], 0.0109 µM and 0.0123 µM; in assay [4], 0.00324 µM; in assay [10], 0.0058 µM and 0.0358 µM. Also, the TGI in [12] was determined as 0.206 µM; in assay [7], 0.0169 µM.
Regarding `CC1=NN(C(=O)CC(=O)Nc2ccccc2F)C(=O)C1N=Nc1ccccc1[N+](=O)[O-]` (stereo not drawn), the TGI in assay [1], in assay [2], in assay [9], in assay [3], in assay [4] and in [5] was more than 100 µM in each case. For the same molecule, the TGI in assay [6], in [10], in assay [7] and in assay [8] was more than 100 µM in each case.
For `CC12CCC3C(CCC4CC(OC(=O)Cc5ccc(N(CCCl)CCCl)cc5)CCC43C)C1CCC(=O)N2` (stereo not drawn), the TGI in assay [1] stood at 30.2 µM; in assay [2] it was 31.1 µM; in [9], 40.7 µM; in assay [3], 33 µM; in assay [4] it was 33.9 µM; in [6], 28.3 µM. In addition, the TGI in assay [10] was 29.4 µM; in assay [7], 28.8 µM; in [8], 30 µM.
`CC(C(=O)N1C(=O)N(C(=O)C(C)C(O)c2ccccc2)C2CCCCC21)C(O)c1ccccc1` (stereo not drawn): the TGI in assay [2], in [9], in assay [4], in assay [5], in [6] and in assay [7] was more than 100 µM throughout. Moreover, the TGI in [8] is more than 100 µM.
As to `CC(=O)OCC1OC(n2cc(I)c(=O)[nH]c2=O)C(OC(C)=O)C(OC(C)=O)C1OC(C)=O` (stereo not drawn), the TGI in assay [1], in assay [2], in [3], in [4], in assay [5] and in assay [6] was more than 100 µM in each case. Moreover, the TGI in assay [7] and in assay [8] was more than 100 µM each time.
With `O=C1Sc2ccccc2C(=O)N2CSCC12` (stereo not drawn), the TGI in [1], in assay [2], in assay [9], in assay [3], in [4] and in assay [5] was more than 100 µM each time. Also, the TGI in assay [10], in assay [7] and in [8] was more than 100 µM throughout.
On to `COc1ccc(-c2oc(/C=N/NC(N)=S)c([N+](=O)[O-])c2-c2ccc(OC)c(OC)c2)cc1OC`, for which the TGI in [1] is 51.7 µM; in assay [2], more than 100 µM; in [3], more than 100 µM; in [5] it was more than 100 µM; in assay [6], more than 100 µM; in [10], 67.6 µM. Moreover, the results for the TGI in assay [7] and in [8] were more than 100 µM and 63.8 µM, respectively.
Consider `CCN(CC)CCCNC(=O)c1ccc([N+](=O)[O-])cc1O`, for which the TGI in [1], in [2], in assay [9], in assay [3], in [4] and in assay [5] was more than 100 µM throughout. The TGI in [6], in [10], in assay [7] and in [8] was more than 100 µM throughout.
On to `CC(O)CCCOC(c1ccccc1)(c1ccccc1)c1ccccc1` (stereo not drawn), for which the TGI came to 26.2 µM in [1]; 39.3 µM in [2]; 29.3 µM in [9]; 31.5 µM in [3]; 26.7 µM in assay [4]; 31.4 µM in assay [5]. Moreover, the TGI in assay [6] was 29.8 µM; in [10] it was 31.2 µM; in assay [7], 30.3 µM; in assay [11], 28.3 µM; in assay [8], 27.9 µM.
`O=C(CN(c1ccccc1)c1ccccc1)N1c2ccccc2C2C=CC=CC21` (stereo not drawn): the TGI in assay [1] was more than 56.5 µM; in assay [2], 24.7 µM; in [9], more than 58.7 µM; in [3], more than 57.5 µM; in [4] it was more than 49.9 µM; in [5], 41.5 µM. Moreover, the TGI in [6] is 32.1 µM; in assay [10] it was 43.8 µM; in [7], 56.3 µM; in [8], 34.6 µM.

These data come from PubChem BioAssay (NCI).
